The test system of this test is caspase-3 activation. Kind of test: Western blot of cleaved (activated) caspase-3 after Aβ1−42 exposure. The settings on record: peptide 100 nM, 30 min pre-treatment; Aβ1−42 oligomers 5 μM, 24 h; western blot densitometry, 3 sessions. The class given is cell-based, Rat. The protocol: Rat pheochromocytoma cells (PC-12 cells) were grown as previously described (Pannaccione et al., [2005], [2007]). For all the experiments, cells were seeded at low density on glass cover-slips coated with poly-L-lysine (50 μg/ml). Differentiation of PC-12 cells was achieved by treatment with neuronal growth factor (NGF) 2.5 S (50 ng/ml) for 7–9 days (Greene and Tischler, [1976]). For electrophysiological experiments, cells were seeded on glass cover-slips and used after 7–9 days of NGF. […]
NGF-differentiated PC-12 and CHO cells were washed in phosphate buffered saline (PBS) and collected by gentle scraping in ice-cold RIPA buffer containing in mM: 50 Tris pH 7.4, 100 NaCl, 1 EGTA, 1 PMSF, 1 sodium orthovanadate, 1 NaF, 0.5% NP-40, and 0.2% SDS supplemented with protease inhibitor cocktail II. […] The protein content of resulting supernatant was determined using the Bradford reagent. […]
The peptide used in our study was synthesized by INBIOS (Pozzuoli, Naples, Italy) using the Aβ1−42 sequence of human APP [UniProtKB-P05067 (A4_HUMAN)]. The purity of the peptide was assessed by high-performance liquid chromatography (>95% pure) and the amino acid composition was verified by mass spectrometry. […] The pre-aggregated preparation of Aβ oligomers was analyzed in SDS-PAGE using the rabbit monoclonal anti-Aβ on precast gels 4-20%. […]
(In general: In western blotting, separated proteins are transferred to a membrane and probed.)

Ends that are not written are not given here.

H-GSAFAPAA-OH [BDS-I[1-8scr]]: the “effect on Aβ1−42-induced caspase-3 activation” value is recorded as “did not”. As to AAPAFASG [BDS-I[1-8]], the “effect on Aβ1−42-induced caspase-3 activation” value is given as “prevented”.

(Values after article PMC6629785, “Synthesis and Pharmacological Evaluation of a Novel Peptide Based on Anemonia sulcata BDS-I Toxin as a New KV3.4 Inhibitor Exerting a Neuroprotective Effect Against Amyloid-β Peptide” (Frontiers in Chemistry, 2019).)
